Marks after values point to notes of the source that are not given here.
System: Donor 3 GMA T-Cell Lines
Test: ATP proliferation assay (CellTiter Glo), Donor 3 GMA T-cell lines, incl. reactivity to non-canonical GA peptides
Format: cell-based, human

## glatiramer acetate [COP]
T-cell line 165-C4G, 3 μg/mL, Day 40
  Mean, ATP proliferation assay: 3959
T-cell line 165-C4G, line COP 10 μg/mL, footnote: well contained 3 μg/mL COP, Day 40
  Mean, ATP proliferation assay: 3717*
T-cell line 165-C5G, 1 μg/mL, Day 40
  Mean, ATP proliferation assay: 12667
T-cell line 165-C5G, 3 μg/mL, Day 40
  Mean, ATP proliferation assay: 24835
T-cell line 165-C5G, 10 μg/mL, Day 40
  Mean, ATP proliferation assay: 47537
T-cell line 165-C8G, 1 μg/mL, tested with the Donor 3 COP lines of Table 25
  Mean, ATP proliferation assay: 400 RLU
T-cell line 165-C8G, 3 μg/mL, tested with the Donor 3 COP lines of Table 25
  Mean, ATP proliferation assay: 4821 RLU
T-cell line 165-C8G, 10 μg/mL, tested with the Donor 3 COP lines of Table 25
  Mean, ATP proliferation assay: 22961 RLU
T-cell line 165-D8G, 1 μg/mL, Day 40
  Mean, ATP proliferation assay: 8088
T-cell line 165-D8G, 3 μg/mL, Day 40
  Mean, ATP proliferation assay: 8722
T-cell line 165-D8G, 10 μg/mL, Day 40
  Mean, ATP proliferation assay: 28872
T-cell line 165-E7G, 1 μg/mL antigen, Day 81 of culturing, No Antigen Value 2145
  Proliferation (luminescent ATP assay), Mean: 4217 RLU
T-cell line 165-E7G, 1 μg/mL, Day 40
  Mean, ATP proliferation assay: 3794
T-cell line 165-E7G, 3 μg/mL antigen, Day 81 of culturing, No Antigen Value 2145
  Proliferation (luminescent ATP assay), Mean: 5366 RLU
T-cell line 165-E7G, 3 μg/mL, Day 40
  Mean, ATP proliferation assay: 4147
T-cell line 165-E7G, 10 μg/mL antigen, Day 81 of culturing, No Antigen Value 2145
  Proliferation (luminescent ATP assay), Mean: 7619 RLU
T-cell line 165-E7G, 10 μg/mL, Day 40
  Mean, ATP proliferation assay: 12565
T-cell line 165-E7G, 30 μg/mL antigen, Day 81 of culturing, No Antigen Value 2145
  Proliferation (luminescent ATP assay), Mean: 7161 RLU
T-cell line 165-E9G, 1 μg/mL antigen, Day 50 of culturing, No Antigen Value 1742
  Proliferation (luminescent ATP assay), Mean: 1999 RLU
T-cell line 165-E9G, 1 μg/mL, Day 40
  Mean, ATP proliferation assay: 3216
T-cell line 165-E9G, 3 μg/mL antigen, Day 50 of culturing, No Antigen Value 1742
  Proliferation (luminescent ATP assay), Mean: 5538 RLU
T-cell line 165-E9G, 3 μg/mL, Day 40
  Mean, ATP proliferation assay: 5584
T-cell line 165-E9G, 10 μg/mL, Day 40
  Mean, ATP proliferation assay: 25454
T-cell line 165-E9G, 30 μg/mL antigen, Day 50 of culturing, No Antigen Value 1742
  Proliferation (luminescent ATP assay), Mean: 38286 RLU
T-cell line 165-E9G, 10 μpg/mL antigen, Day 50 of culturing, No Antigen Value 1742
  Proliferation (luminescent ATP assay), Mean: 38813 RLU
T-cell line 165-F2G, 1 μg/mL, Day 40
  Mean, ATP proliferation assay: 1700
T-cell line 165-F2G, 3 μg/mL, Day 40
  Mean, ATP proliferation assay: 1332
T-cell line 165-F2G, 10 μg/mL, Day 40
  Mean, ATP proliferation assay: 1554
T-cell line 165-F5G, 1 μg/mL, Day 40
  Mean, ATP proliferation assay: 4332
T-cell line 165-F5G, 3 μg/mL, Day 40
  Mean, ATP proliferation assay: 6099
T-cell line 165-F5G, 10 μg/mL, Day 40
  Mean, ATP proliferation assay: 19498
T-cell line 165-F8G, 1 μg/mL, Day 40
  Mean, ATP proliferation assay: 3690
T-cell line 165-F8G, 3 μg/mL, Day 40
  Mean, ATP proliferation assay: 3184
T-cell line 165-F8G, 10 μg/mL, Day 40
  Mean, ATP proliferation assay: 10663
T-cell line 165-F10G, 1 μg/mL antigen, Day 50 of culturing, No Antigen Value 3752
  Proliferation (luminescent ATP assay), Mean: 6350 RLU
T-cell line 165-F10G, 1 μg/mL, Day 40
  Mean, ATP proliferation assay: 8427
T-cell line 165-F10G, 3 μg/mL antigen, Day 50 of culturing, No Antigen Value 3752
  Proliferation (luminescent ATP assay), Mean: 40495 RLU
T-cell line 165-F10G, 10 μg/mL antigen, Day 50 of culturing, No Antigen Value 3752
  Proliferation (luminescent ATP assay), Mean: 58726 RLU
T-cell line 165-F10G, 10 μg/mL, Day 40
  Mean, ATP proliferation assay: 29986
T-cell line 165-F10G, 30 μg/mL antigen, Day 50 of culturing, No Antigen Value 3752
  Proliferation (luminescent ATP assay), Mean: 60488 RLU
T-cell line 165-F10G, line COP 3 μg/mL, footnote: well contained 10 μg/mL COP, Day 40
  Mean, ATP proliferation assay: 31303**
T-cell line 165-H11G, 1 μg/mL antigen, Day 50 of culturing, No Antigen Value 1485
  Proliferation (luminescent ATP assay), Mean: 8610 RLU
T-cell line 165-H11G, 1 μg/mL, Day 40
  Mean, ATP proliferation assay: 9102
T-cell line 165-H11G, 3 μg/mL antigen, Day 50 of culturing, No Antigen Value 1485
  Proliferation (luminescent ATP assay), Mean: 37551 RLU
T-cell line 165-H11G, 3 μg/mL, Day 40
  Mean, ATP proliferation assay: 15637
T-cell line 165-H11G, 10 μg/mL antigen, Day 50 of culturing, No Antigen Value 1485
  Proliferation (luminescent ATP assay), Mean: 50044 RLU
T-cell line 165-H11G, 10 μg/mL, Day 40
  Mean, ATP proliferation assay: 43786
T-cell line 165-H11G, 30 μg/mL antigen, Day 50 of culturing, No Antigen Value 1485
  Proliferation (luminescent ATP assay), Mean: 32898 RLU
All 8 Donor 3 GMA cell lines tested, Day 32, 10 μg/mL (Table 19)
  responsiveness in proliferation assay: responsive
Eleven of the 12 cell lines (all but F2G), Day 40, 1, 3 or 10 μg/mL (Table 21)
  responsiveness in proliferation assay: responsive

— patent US9995734B2, “Human T cell line assay for evaluating the immunologic identity of glatiramer acetate preparations” (Mylan Inc., priority 2013, dated 2018)
